Test results published in patent publication US5362739A (priority 1990, dated 1994).
Counter-ions that a name gives are not always drawn. Like-named read-outs stand apart in the source and are kept apart here.

What was measured:
muscarinic receptors [1] = type: binding, rat (Hooded Lister); conditions: 0.27 nM 3H-QNB, rat cerebral cortex membranes, 37° C., 30 min
muscarinic receptors [2] = assay: Radio ligand binding: displacement of the muscarinic agonist 3H-Oxotremorine-M (3H-OXO-M); design: species or system rat (Hooded Lister); conditions: 2 nM 3H-OXO-M, rat cerebral cortex membranes, 2 mM magnesium chloride, 37° C., 30 min

Compound | IC50 (muscarinic receptors [1]) [nM] | IC50 (muscarinic receptors [2]) [nM]
CON=C(Cl)C1=CC2CCN(C1)C2 (racemic) [Compound E2, (±) 1-Azabicyclo[3.2.1]oct-3-en-3-yl-N-methoxycarboximidoyl chloride oxalate salt] | 1100 | 100
CON=C(C)C1=CC2CCN(C1)C2 (racemic) [Compound E5, (±)trans 3-Acetyl-1-azabicyclo[3.2.1]oct-3-ene-O-methyloxime hydrochloride salt] | 1450 | 175
CON=C(F)C1=CC2CCN(C1)C2 (racemic) [Compound E3, (±) 1-Azabicyclo[3.2.1]oct-3-en-3-yl-N-methoxcarboximidoyl fluoride oxalate salt] | 320 | 26
CON=C(C#N)C1=CC2CCN(C1)C2 (racemic) [Compound E6, (±)-α-(Methoxyimino)-α-(1-azabicyclo[3.2.1]oct-3-en-3-yl)acetonitrile oxalate salt] | 330 | 21
CON=CC1=CC2CCN(C1)C2 (mixture of isomers) [Compound E4, (±) syn-1-Azabicyclo[3.2.1]oct-3-en-3-ylcarboxaldehyde-O-methyloxime hydrochloride salt] | 1250 | 70
